Results on seven compounds are retold here after ChEMBL document CHEMBL3596090, “Discovery of novel pyrazole-containing benzamides as potent RORγ inverse agonists” (Bioorg Med Chem Lett, 2015).

By EC50 is commonly meant the midpoint of the concentration-response curve. Usually fraction unbound stands for the share of the substance not bound to proteins or other matrix. The term IC50 denotes the midpoint of a concentration-inhibition curve. As usually defined, the AUC is the area under the concentration-time curve, a measure of exposure. Low readings indicate low exposure, high ones high exposure. As usually defined, the AUC(0-t) is the area under the concentration-time curve up to a stated or last time point. Low readings indicate low exposure, high ones high exposure.

Converted amounts (≈) assume the structure as drawn.

Data set [1] has as its target T1, Nuclear receptor ROR-gamma (Homo sapiens, UniProt P51449).
T1 sequence (P51449 whole entry): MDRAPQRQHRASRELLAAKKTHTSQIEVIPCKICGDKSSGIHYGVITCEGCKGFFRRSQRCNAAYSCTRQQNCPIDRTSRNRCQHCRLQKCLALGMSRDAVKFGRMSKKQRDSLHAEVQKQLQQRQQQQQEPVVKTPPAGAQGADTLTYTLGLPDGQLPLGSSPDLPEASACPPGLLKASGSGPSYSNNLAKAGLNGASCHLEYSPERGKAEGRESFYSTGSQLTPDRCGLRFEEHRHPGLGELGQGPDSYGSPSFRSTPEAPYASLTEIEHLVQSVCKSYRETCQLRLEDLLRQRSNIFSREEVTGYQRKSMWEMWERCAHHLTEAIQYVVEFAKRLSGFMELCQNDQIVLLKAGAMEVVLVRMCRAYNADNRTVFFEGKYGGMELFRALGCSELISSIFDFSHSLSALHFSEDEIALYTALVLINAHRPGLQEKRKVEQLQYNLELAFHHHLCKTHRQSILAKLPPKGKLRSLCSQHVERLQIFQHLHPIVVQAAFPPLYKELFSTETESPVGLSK
The data set is described as follows: Inverse agonist activity at RORgamma (unknown origin) transfected in HEK293T cells after 16 to 20 hrs by GAL4 luciferase reporter gene assay. Format: functional, cell-based, HEK-293T.

A short description of data set [2]: Percentage unbound in human plasma. Format: ADME, cell-free.
In data set [3] the target is T2, Nuclear receptor ROR-gamma (Mus musculus, UniProt P51450).
T2 sequence (P51450 whole entry): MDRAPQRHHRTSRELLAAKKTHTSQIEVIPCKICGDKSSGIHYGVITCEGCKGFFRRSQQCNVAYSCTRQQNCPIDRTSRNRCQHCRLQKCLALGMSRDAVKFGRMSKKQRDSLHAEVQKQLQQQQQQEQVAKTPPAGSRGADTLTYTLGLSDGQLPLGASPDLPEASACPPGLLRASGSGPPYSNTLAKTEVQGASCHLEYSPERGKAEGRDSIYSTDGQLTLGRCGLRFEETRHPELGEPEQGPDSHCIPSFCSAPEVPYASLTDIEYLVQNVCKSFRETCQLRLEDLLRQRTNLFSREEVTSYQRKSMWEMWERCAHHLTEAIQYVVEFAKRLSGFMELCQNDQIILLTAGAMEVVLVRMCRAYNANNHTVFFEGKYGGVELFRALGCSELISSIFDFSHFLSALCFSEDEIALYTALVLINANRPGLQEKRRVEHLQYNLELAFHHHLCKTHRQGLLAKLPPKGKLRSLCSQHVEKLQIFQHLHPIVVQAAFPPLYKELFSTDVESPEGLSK
Nature of the data set: Inverse agonist activity at RORgamma in C57BL/6 mouse splenocytes assessed as reduction of IL-17 production after 2 days by ELISA. Format: cell-based.

A short description of data set [4]: Kinetic aqueous solubility of the compound. To be noted: buffer; read-out: Kinetic_solubility. Format: physicochemical.
Data set [5] addresses T1, Nuclear receptor ROR-gamma. The data set is described as follows: Binding affinity to GST-tagged RORgamma LBD (unknown origin) assessed as inhibition of interaction with co-activatior peptide TRAP220 preincubated for 1 hr followed by TRAP220 addition by FRET analysis.
Data set [6] in a line: Percentage unbound in rat plasma. Format: ADME, cell-free.
Data set [7] in a line: AUC in po dosed rat. As to conditions: in vivo. It counts as ADME, organism-based.
Data set [8] can be described thus: AUC (0 to 7 hrs) in rat at 10 mg/kg, po. To be noted: in vivo. More on the design: time < 7 hr, dose 10 mg/kg, route oral. Format: ADME, organism-based.
Data set [9] has as its target T3, Nuclear receptor subfamily 1 group I member 2 (Homo sapiens, UniProt O75469).
T3 sequence (O75469 whole entry): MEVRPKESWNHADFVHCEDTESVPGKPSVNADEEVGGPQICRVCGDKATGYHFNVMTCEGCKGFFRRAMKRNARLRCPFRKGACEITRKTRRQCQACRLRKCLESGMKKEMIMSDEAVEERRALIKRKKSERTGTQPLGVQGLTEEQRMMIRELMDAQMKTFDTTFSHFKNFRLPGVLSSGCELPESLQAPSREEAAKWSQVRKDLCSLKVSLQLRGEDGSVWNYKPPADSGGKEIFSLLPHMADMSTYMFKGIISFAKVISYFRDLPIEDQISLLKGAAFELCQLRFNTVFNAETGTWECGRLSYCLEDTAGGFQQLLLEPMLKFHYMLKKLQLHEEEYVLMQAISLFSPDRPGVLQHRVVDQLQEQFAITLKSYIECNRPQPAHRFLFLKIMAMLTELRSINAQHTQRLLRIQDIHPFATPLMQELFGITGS
The data set is described as follows: Activation of PXR (unknown origin).

In data set [10] the target is T4, Nuclear receptor ROR-beta (Homo sapiens, UniProt Q92753).
T4 sequence (Q92753 whole entry): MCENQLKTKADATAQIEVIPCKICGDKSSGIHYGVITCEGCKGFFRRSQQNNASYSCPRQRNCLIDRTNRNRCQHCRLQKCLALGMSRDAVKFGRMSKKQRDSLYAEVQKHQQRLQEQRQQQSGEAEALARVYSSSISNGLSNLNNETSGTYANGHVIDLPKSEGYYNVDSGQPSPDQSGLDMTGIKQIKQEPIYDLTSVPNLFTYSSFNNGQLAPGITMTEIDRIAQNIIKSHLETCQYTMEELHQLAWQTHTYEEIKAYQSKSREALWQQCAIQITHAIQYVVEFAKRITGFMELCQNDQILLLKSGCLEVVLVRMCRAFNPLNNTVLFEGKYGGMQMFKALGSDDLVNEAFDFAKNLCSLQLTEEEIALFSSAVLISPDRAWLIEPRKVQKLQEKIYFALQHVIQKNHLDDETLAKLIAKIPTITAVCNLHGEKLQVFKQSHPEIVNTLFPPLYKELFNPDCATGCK
Nature of the data set: Inverse agonist activity at RORbeta (unknown origin).

In data set [11] the target is T5, Nuclear receptor ROR-alpha (Homo sapiens, UniProt P35398).
T5 sequence (P35398 whole entry): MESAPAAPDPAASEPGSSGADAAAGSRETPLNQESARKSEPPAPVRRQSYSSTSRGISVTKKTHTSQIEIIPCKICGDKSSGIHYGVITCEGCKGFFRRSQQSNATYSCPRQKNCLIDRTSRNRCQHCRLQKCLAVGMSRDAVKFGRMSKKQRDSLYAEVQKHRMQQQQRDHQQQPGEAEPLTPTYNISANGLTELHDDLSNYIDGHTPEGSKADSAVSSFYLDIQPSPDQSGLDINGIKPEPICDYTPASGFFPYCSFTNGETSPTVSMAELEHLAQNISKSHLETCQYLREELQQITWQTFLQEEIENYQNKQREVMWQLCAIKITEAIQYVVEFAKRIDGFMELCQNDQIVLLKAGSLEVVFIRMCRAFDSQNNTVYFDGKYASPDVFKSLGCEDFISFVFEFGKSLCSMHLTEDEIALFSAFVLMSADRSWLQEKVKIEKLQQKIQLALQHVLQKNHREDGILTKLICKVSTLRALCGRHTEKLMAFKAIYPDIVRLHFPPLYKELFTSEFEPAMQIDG
Nature of the data set: Inverse agonist activity at RORalpha (unknown origin).

A short description of data set [12]: AUC in mouse at 25 mg/kg, po. Format: ADME, organism-based. To be noted: in vivo.

`[2H]C([2H])([2H])N(C(=O)c1c(F)cccc1Cl)c1ccc(-c2cc(NC(=O)OC3(C)CC3)nn2C(C)C)cc1N1CC2CC2C1` (stereo unspecified) came in with an EC50 in [1] of 150 nM.
As to `[2H]C([2H])([2H])N(C(=O)c1c(F)cccc1Cl)c1ccc(-c2cc(C(N)=O)ccc2Cl)cc1OCC(F)(F)F`, the fraction unbound in data set [2] stood at 0.003; in data set [6] it was 0.002. The EC50 in data set [3] was determined as 895 nM; in [1], 98 nM. Besides, the solubility kinetic in data set [4] is 0.3 µg/mL (≈ 0.579 µM). Besides, the IC50 in data set [5] was found to be 29 nM. In [7], the AUC was found to be 3130 ng·h/mL.
With `[2H]C([2H])([2H])N(C(=O)c1c(F)cccc1Cl)c1ccc(-c2cc(NC(=O)NC(CO)CO)nn2C(C)C)cc1N1CC2CC2C1` (stereo unspecified), the EC50 in data set [1] stood at 71 nM.
Consider `CC(=O)Nc1nc(-c2cnc(N(C)C(=O)c3c(F)cccc3Cl)c(N3CCCCC3)c2)n(C(C)C)n1`, for which the EC50 in data set [1] was > 1000 nM. The IC50 in data set [5] is > 5000 nM.
Turning to `CC(=O)Nc1cc(-c2cnc(N(C)C(=O)c3c(F)cccc3Cl)c(N3CCCCC3)c2)n(C(C)C)n1`, the results for the fraction unbound in data set [2] and in data set [6] were 0.076 and 0.013, respectively. In addition, the EC50 in data set [3] stood at 34 nM; in data set [9], 5400 nM; in data set [10], 2300 nM; in [11], 9300 nM. This compound also displayed an AUC(0-t) at 7 h in [8] of 927 ng·h/mL. In [4], the solubility kinetic turned out to be 37.4 µg/mL (≈ 72.9 µM). The compound also displayed an AUC in [12] of 2260 ng·h/mL.
Take `[2H]C([2H])([2H])N(C(=O)c1c(F)cccc1Cl)c1ccc(-c2cc(NC(C)=O)nn2C(C)C)cc1N1CC2CC2C1` (stereo unspecified): the fraction unbound came to 0.014 in data set [2] and 0.002 in data set [6]. The EC50 in data set [3] turned out to be 38 nM; in data set [9], 9900 nM; in [10] it was 1300 nM; in data set [11], 1600 nM. Moreover, the AUC(0-t) at 7 h in data set [8] was 1040 ng·h/mL. The solubility kinetic in data set [4] amounted to 2.1 µg/mL (≈ 4.09 µM). The AUC in data set [12] turned out to be 2830 ng·h/mL.
As to `[2H]C([2H])([2H])N(C(=O)c1c(F)cccc1Cl)c1ccc(-c2cc(NC(=O)C(C)C)nn2C(C)C)cc1N1CC2CC2C1` (stereo unspecified), the EC50 in data set [3] is 128 nM; in [1], 15 nM.
